# In US20180369111A1, “COMPOSITION COMPRISING BAICALIN AT A HIGH CONCENTRATION” (L'OREAL, priority 2015, published 2018):
# Test: Solubility and chemical stability of baicalin in aqueous medium as a function of pH
# Assay type: physicochemical
# From the text: Baicalin is a polyphenol displaying an antioxidant activity. There is thus a need, for consumers, to provide cosmetic compositions comprising baicalin, or an extract containing same, at a high concentration and having a greater antioxidant efficacy than the cosmetic compositions known in the prior art comprising baicalin. However, the solubility of baicalin is very low in aqueous medium. It is therefore very difficult to incorporate in a composition, in particular a cosmetic composition, at a high mass concentration, in particular at a mass concentration greater than 0.2%. At a mass concentration greater than 0.2%, the appearance of the presence of crystallized baicalin is observed. The present inventors have identified that the solubility of baicalin was increased with the pH.
# In particular, the method implemented to incorporate baicalin, or an extract containing same, at a high mass concentration, i.e. for example greater than 0.5% in the aqueous phase of a composition consists, in a first transitory step, of completely dissolving the baicalin in aqueous phase in a basic medium using a base to raise the pH to a value greater than 6. Under these conditions, it is possible to prepare aqueous solutions comprising up to 10% baicalin as a mass concentration, without using hydrotropic agents.
# Baicalin is presented in the form of a yellow powder, having a purity optionally greater than 90 or 95%. Baicalin crystals may be presented in the form of needles.
smiles,measurement,setting,value
O=C(O)[C@H]1O[C@@H](Oc2cc3oc(-c4ccccc4)cc(=O)c3c(O)c2O)[C@H](O)[C@@H](O)[C@@H]1O [Baicalin],baicalin mass concentration attainable in aqueous solution,,up to 10%
same,chemical stability of baicalin,at a pH greater than 6,chemically unstable and is degraded
same,mass concentration above which crystallized baicalin appears,"in a composition, mass concentration",greater than 0.2%
